Laboratory results published in patent US11905417B2, “Anthraquinone compound, liquid crystal composition for dimming including said compound, and dimming element” (Nippon Kayaku Kabushiki Kaisha, priority 2020, dated 2024).

What was measured:
[1] = Evaluation of solubility of compounds in liquid crystal material (maximum dissolution amount, visual observation); assay type: physicochemical; conditions: in liquid crystal material (cyanobiphenyl/terphenyl mixture), room temperature, 0.5% steps, tested up to about 4.5% by mass
Description: (§1) When a uniform composition with no insoluble matter was obtained, a procedure of further adding 0.003 parts of the compound represented by No. 2, stirring the mixture at room temperature for 1 hour, and then visually observing the appearance of the composition was repeated until a dissolution amount (see the following) reached about 4.5% by mass. The solubility of the compound represented by No. 2 in the liquid crystal material was evaluated by the maximum addition amount at which a uniform composition with no insoluble matter was obtained.
When a uniform composition with no insoluble matter was obtained even after 0.024 parts of the compound were added, the maximum dissolution amount was provisionally determined to be “about 4.5% by mass”.

[2] = Evaluation of solubility of compounds in liquid crystal material, photocurable compound, and photopolymerization initiator; assay type: physicochemical; conditions: room temperature, 0.5% steps, tested up to about 3.5% by mass
Description: as §1, with “0.005” for “0.003”, “3.5%” for “4.5%”, “material, the photocurable compound, and the photopolymerization initiator” for “material”
When a uniform composition with no insoluble matter was obtained even after 0.030 parts of the compound were added, the maximum dissolution amount was provisionally determined to be “about 3.5% by mass”.

[3] = Evaluation of contrast of compositions at maximum dissolution amount encapsulated in a cell (C=Ky/Kz at λmax); conditions: absorption peak wavelength of the composition in the cell
From the text: The compositions obtained in Examples 3 and 4 and Comparative Examples 6 to 10 were each encapsulated in an element made of two upper and lower glass substrates each having a transparent electrode with an inter-substrate gap of 15 μm, in which the surface of each glass substrate in contact with a liquid crystal was rubbed with a polyamide-based resin and was subjected to a homogeneous orientation treatment. When no voltage was applied in the element subjected to the orientation treatment, the liquid crystal was in a homogeneously oriented state, and dye molecules were also in the same orientation according to the host liquid crystal.
Each of the uniform compositions with no insoluble matter, which were obtained in the above-mentioned “Evaluation of Solubilities of Compounds of Examples according to Present Invention and Compounds of Comparative Examples in Liquid Crystal Material” and which were each made in the maximum dissolution amount, was encapsulated in a cell. In the cell in which each of the uniform compositions was encapsulated, a transmittance (Ky) of linearly polarized light parallel to the orientation direction and a transmittance (Kz) of polarized light perpendicular to the orientation direction were measured, and a contrast (C) at its absorption peak wavelength (λmax) was determined from the following expression. C=Ky/Kz

Which Maximum dissolution amount [1] does the source give for CCCCC(CC)C(=O)Oc1ccc(Sc2cccc3c2C(=O)c2cccc(Sc4ccc(OC(=O)C(CC)CCCC)cc4)c2C3=O)cc1 (stereo not drawn) [No.3] here?
The Maximum dissolution amount was 3.5% by mass.

What about the Maximum dissolution amount [2] of the same compound?
Its Maximum dissolution amount is 3.5% by mass.

And the “λmax(nm)” value [3]?
The value was 462 nm.

Which Maximum dissolution amount [1] does the source give for CC(C)(C)c1ccc(Sc2cccc3c2C(=O)c2cccc(Sc4ccc5ccccc5c4)c2C3=O)cc1 [Formula(A)] here?
Its Maximum dissolution amount is 1.0% by mass.

What about the Maximum dissolution amount [2] of the same compound?
Its Maximum dissolution amount is 0.5% by mass.

What about the “λmax(nm)” value [3] of the same compound?
Its value is 462 nm.

Which Maximum dissolution amount [1] does the source give for CC(CC(=O)Oc1ccc(Sc2cccc3c2C(=O)c2cccc(Sc4ccc(OC(=O)CC(C)CC(C)(C)C)cc4)c2C3=O)cc1)CC(C)(C)C (stereo not drawn) [Formula(D)] here?
Its Maximum dissolution amount is 2.0% by mass.

And the Maximum dissolution amount [2]?
Its Maximum dissolution amount is 1.0% by mass.

What about the “λmax(nm)” value [3] of the same compound?
Its value is 462 nm.

Which results are given for CCCCCC(C)CCC(=O)Oc1ccc(Sc2cccc3c2C(=O)c2cccc(Sc4ccc(OC(=O)CCC(C)CCCCC)cc4)c2C3=O)cc1 (stereo not drawn) [Formula(E)]?
Maximum dissolution amount [1]: 2.0% by mass; Maximum dissolution amount [2]: 1.0% by mass; λmax(nm) [3]: 460 nm

Which Maximum dissolution amount [1] does the source give for CCCCCCCCC(CCCCCC)C(=O)Oc1ccc(Sc2cccc3c2C(=O)c2cccc(Sc4ccc(OC(=O)C(CCCCCC)CCCCCCCC)cc4)c2C3=O)cc1 (stereo not drawn) [No.2] here?
The Maximum dissolution amount was 4.5% by mass.

And the Maximum dissolution amount [2]?
Its Maximum dissolution amount is 3.5% by mass.

What about the “λmax(nm)” value [3] of the same compound?
The value was 460 nm.
